In general, IC50 refers to the concentration that gives 50% inhibition.

The target of test [1] is T1, MAP kinase-activated protein kinase 5 (Homo sapiens) (UniProt Q8IW41).
T1 sequence (whole entry): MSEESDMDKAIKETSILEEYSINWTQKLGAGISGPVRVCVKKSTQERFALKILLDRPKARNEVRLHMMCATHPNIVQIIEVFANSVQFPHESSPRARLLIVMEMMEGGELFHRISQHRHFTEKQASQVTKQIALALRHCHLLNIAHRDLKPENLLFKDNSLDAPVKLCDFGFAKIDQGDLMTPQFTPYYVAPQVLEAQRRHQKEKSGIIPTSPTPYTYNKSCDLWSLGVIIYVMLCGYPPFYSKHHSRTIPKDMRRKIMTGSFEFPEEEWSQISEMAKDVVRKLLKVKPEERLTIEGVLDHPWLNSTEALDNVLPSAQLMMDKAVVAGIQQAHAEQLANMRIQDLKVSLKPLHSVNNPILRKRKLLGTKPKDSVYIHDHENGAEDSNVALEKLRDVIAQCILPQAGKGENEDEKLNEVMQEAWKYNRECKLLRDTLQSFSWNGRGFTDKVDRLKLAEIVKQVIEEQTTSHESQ
Kind of test: Selectivity interaction (KinomeScan (DiscoverX)) EUB0000607a MAPKAPK5. The following applies: at 10 µM.

The target in test [2] is Wee1-like protein kinase 2 (Homo sapiens) (UniProt P0C1S8). Description: Selectivity interaction (KinomeScan (DiscoverX)) EUB0000229b WEE2. The following applies: at 10 µM.
Test [3] deals with AP2-associated protein kinase 1 (Homo sapiens, UniProt Q2M2I8). Description: Selectivity interaction (KinomeScan (DiscoverX)) EUB0001079a AAK1. As to conditions: at 1 µM.
For test [4], the target named is Proto-oncogene tyrosine-protein kinase Src (Homo sapiens, UniProt P12931). Description: Selectivity interaction (KinaseProfiler screening (Millipore)) EUB0000601a SRC. The following applies: at 3 µM.
Test [5] concerns the target Serine/threonine-protein kinase MRCK alpha (Homo sapiens) (UniProt Q5VT25). Kind of test: Selectivity interaction (KinomeScan (DiscoverX)) EUB0001619a CDC42BPA. The following applies: at 1 µM.
Test [6] addresses Voltage-gated inwardly rectifying potassium channel KCNH2 (Homo sapiens, UniProt Q12809). Kind of test: Selectivity interaction (HERG dofetilide binding assay, human recombinant ) EUB0000877a KCNH2.
Test [7] has as its target T2, Dual specificity protein kinase TTK (Homo sapiens) (UniProt P33981).
T2 sequence (whole entry): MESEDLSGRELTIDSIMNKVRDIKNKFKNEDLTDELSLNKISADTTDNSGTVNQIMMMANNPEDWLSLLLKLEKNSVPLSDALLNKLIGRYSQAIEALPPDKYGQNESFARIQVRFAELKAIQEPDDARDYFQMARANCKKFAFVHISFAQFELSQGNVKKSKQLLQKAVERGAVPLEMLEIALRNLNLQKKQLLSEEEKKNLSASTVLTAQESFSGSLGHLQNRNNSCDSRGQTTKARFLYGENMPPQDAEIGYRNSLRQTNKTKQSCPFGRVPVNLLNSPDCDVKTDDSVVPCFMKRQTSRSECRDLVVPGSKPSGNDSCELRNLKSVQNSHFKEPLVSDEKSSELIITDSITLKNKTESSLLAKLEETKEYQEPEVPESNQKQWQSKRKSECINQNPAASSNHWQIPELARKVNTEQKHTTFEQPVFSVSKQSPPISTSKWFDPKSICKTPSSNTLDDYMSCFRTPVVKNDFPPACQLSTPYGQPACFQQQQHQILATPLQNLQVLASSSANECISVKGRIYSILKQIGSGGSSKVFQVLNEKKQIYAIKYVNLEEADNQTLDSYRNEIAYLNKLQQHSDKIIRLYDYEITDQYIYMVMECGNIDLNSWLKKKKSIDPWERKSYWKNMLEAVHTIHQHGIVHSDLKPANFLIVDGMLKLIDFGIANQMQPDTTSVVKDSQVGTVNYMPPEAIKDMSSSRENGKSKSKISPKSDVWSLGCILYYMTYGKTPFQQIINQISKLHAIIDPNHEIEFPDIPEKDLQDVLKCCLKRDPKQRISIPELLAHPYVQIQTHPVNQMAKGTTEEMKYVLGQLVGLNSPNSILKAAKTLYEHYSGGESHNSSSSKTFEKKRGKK
The following applies: at 10 µM.

Test [8] concerns the target Serine/threonine-protein kinase pim-1 (Homo sapiens, UniProt P11309). Kind of test: Selectivity interaction (Millipore kinase profiler) EUB0000124b PIM1. The following applies: at 10 µM.
Test [9] addresses Serine/threonine-protein kinase WNK2 (Homo sapiens) (UniProt Q9Y3S1). Kind of test: Selectivity interaction (KinomeScan (DiscoverX)) EUB0001049a WNK2. As to conditions: at 1 µM.
The target in test [10] is Cyclin-dependent kinase 13 (Homo sapiens, UniProt Q14004). Kind of test: Selectivity interaction (KinomeScan (DiscoverX)) EUB0000618a CDK13. As to conditions: at 10 µM.
Test [11] addresses T3, Ankyrin repeat and protein kinase domain-containing protein 1 (Homo sapiens) (UniProt Q8NFD2).
T3 sequence (whole entry): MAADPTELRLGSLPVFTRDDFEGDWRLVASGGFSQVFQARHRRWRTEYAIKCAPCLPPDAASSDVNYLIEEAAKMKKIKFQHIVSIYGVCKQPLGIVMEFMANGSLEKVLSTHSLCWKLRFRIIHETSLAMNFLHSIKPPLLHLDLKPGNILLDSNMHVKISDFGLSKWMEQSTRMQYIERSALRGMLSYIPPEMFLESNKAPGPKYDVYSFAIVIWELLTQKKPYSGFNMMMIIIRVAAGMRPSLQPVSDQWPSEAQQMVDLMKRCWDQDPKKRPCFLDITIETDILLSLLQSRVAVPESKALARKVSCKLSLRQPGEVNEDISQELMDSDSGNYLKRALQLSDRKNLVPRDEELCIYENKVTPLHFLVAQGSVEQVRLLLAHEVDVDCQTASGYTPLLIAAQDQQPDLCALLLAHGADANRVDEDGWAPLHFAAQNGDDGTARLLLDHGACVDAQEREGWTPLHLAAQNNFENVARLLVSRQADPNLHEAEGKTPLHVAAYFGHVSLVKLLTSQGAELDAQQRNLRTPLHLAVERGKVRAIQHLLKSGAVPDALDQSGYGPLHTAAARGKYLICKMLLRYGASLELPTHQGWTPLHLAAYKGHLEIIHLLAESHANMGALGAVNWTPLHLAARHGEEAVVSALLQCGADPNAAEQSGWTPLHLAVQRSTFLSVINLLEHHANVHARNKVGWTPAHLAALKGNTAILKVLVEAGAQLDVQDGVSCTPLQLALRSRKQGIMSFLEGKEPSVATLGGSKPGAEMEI
As to conditions: at 10 µM.

Test [12] concerns the target Cyclin-dependent kinase 2 (Homo sapiens, UniProt P24941). Description: Selectivity interaction (KinomeScan (DiscoverX)) EUB0000595a CDK2. The following applies: at 10 µM.

Sequence of Serine/threonine-protein kinase MRCK alpha (Homo sapiens) (Q5VT25 whole entry): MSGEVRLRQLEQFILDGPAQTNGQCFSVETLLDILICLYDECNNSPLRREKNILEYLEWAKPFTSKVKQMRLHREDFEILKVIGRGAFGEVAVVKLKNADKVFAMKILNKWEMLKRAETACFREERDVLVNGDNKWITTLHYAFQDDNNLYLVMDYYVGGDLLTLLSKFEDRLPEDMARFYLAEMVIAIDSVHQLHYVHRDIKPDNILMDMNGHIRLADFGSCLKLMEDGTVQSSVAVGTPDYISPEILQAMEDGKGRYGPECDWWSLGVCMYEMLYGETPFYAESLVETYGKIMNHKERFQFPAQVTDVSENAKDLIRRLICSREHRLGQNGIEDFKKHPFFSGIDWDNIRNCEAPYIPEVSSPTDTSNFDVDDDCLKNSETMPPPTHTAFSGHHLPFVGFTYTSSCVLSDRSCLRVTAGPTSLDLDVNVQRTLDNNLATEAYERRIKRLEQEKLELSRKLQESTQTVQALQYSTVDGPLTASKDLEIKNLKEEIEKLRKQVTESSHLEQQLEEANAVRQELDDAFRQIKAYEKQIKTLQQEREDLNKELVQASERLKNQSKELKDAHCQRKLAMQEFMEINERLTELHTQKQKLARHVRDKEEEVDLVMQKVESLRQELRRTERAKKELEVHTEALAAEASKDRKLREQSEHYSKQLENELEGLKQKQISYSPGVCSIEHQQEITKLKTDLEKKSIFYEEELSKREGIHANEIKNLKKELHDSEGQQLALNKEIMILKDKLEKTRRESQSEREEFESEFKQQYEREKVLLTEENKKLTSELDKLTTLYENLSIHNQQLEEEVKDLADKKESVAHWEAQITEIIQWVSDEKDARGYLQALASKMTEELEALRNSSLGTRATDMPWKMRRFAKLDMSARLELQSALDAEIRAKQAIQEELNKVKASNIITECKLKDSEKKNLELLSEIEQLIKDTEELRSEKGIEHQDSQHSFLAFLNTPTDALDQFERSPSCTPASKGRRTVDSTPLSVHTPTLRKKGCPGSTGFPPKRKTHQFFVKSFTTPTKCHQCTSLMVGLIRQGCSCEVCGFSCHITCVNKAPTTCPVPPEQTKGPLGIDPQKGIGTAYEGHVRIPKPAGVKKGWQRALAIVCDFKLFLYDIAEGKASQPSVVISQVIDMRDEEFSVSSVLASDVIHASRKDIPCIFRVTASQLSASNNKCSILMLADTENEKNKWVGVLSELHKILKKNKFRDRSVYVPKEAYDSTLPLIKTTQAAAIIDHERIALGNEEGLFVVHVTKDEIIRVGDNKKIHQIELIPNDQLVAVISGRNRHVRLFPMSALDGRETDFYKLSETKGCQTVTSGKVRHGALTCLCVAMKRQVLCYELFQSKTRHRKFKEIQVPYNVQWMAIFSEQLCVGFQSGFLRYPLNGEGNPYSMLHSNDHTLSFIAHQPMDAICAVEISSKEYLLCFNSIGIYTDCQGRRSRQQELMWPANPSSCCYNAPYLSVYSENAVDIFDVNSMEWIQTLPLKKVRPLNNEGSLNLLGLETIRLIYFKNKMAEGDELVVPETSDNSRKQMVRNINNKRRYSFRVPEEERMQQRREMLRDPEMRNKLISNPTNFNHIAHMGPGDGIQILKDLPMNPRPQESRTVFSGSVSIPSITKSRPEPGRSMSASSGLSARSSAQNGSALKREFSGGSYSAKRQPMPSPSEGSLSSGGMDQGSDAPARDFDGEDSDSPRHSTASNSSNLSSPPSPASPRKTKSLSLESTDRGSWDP
Sequence of Wee1-like protein kinase 2 (Homo sapiens) (P0C1S8 whole entry, looked up): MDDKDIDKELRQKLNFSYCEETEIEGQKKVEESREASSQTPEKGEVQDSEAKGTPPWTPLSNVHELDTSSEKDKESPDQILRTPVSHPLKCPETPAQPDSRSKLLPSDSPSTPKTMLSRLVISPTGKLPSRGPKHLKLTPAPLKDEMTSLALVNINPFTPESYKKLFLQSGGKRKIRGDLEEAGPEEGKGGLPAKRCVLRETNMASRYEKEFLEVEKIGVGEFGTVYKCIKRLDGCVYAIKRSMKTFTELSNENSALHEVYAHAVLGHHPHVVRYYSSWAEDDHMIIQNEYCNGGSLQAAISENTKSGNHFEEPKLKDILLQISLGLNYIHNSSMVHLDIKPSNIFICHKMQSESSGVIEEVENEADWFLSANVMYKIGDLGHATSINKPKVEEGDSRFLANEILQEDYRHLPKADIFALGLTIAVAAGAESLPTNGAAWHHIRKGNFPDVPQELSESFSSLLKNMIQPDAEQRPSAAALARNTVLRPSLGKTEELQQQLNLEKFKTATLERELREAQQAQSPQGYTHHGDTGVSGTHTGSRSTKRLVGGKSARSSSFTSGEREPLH
Sequence of Serine/threonine-protein kinase WNK2 (Homo sapiens) (Q9Y3S1 whole entry): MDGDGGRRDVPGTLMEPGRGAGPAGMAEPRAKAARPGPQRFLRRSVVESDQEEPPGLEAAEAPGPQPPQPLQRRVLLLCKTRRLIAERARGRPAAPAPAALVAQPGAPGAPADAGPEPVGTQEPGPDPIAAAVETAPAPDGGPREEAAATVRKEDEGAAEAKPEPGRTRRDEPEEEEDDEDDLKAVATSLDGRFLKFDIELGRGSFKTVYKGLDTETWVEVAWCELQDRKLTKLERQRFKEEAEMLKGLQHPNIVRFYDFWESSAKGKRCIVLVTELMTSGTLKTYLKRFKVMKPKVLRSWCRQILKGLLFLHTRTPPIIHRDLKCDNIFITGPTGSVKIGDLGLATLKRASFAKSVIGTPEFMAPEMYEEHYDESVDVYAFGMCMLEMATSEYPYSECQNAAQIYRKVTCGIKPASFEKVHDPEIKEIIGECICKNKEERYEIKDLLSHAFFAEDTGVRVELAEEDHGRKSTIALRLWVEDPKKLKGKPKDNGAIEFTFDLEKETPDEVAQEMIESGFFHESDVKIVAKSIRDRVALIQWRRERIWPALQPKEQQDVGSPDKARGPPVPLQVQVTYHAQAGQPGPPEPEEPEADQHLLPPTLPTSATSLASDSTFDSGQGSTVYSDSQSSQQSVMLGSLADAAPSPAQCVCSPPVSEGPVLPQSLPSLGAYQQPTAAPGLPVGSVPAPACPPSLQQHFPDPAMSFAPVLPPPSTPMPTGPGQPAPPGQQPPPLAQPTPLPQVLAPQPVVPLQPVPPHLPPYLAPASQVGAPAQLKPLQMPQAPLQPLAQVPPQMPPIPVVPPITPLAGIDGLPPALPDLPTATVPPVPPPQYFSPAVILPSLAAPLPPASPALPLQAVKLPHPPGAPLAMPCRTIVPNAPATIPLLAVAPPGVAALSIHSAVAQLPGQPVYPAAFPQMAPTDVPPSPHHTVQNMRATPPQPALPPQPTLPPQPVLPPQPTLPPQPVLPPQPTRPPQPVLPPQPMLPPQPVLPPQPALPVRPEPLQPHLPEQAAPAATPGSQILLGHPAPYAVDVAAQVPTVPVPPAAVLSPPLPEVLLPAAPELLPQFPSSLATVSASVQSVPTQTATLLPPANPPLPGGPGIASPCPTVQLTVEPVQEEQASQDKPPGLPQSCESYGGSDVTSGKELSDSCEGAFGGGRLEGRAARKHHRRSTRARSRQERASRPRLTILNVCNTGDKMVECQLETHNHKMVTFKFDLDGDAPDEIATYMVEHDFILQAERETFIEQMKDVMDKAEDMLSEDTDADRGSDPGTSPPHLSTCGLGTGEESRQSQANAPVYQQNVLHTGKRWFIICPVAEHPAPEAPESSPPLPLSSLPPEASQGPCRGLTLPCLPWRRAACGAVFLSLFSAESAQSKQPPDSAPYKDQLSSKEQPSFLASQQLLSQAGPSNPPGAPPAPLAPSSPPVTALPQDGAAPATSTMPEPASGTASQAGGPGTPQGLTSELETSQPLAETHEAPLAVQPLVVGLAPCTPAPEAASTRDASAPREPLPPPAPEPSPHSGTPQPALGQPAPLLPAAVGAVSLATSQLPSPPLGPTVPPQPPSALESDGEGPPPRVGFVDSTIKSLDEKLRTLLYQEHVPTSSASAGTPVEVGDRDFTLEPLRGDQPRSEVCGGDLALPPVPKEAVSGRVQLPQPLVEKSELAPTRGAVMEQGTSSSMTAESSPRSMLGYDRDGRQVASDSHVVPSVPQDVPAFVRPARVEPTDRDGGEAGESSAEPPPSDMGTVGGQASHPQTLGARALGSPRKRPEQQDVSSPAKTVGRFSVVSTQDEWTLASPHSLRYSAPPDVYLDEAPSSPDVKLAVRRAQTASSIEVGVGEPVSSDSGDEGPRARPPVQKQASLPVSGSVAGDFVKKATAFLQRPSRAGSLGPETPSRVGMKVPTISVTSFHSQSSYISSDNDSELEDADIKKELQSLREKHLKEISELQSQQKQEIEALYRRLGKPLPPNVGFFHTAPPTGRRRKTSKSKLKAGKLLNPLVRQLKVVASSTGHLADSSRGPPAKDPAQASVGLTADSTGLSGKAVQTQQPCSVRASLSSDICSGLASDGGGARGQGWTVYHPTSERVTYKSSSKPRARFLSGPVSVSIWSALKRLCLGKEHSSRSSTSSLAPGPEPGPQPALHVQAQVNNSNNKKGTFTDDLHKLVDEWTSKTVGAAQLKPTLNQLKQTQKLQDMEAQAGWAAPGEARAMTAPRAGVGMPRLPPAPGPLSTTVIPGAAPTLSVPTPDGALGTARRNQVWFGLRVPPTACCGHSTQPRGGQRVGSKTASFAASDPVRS
Sequence of Serine/threonine-protein kinase pim-1 (P11309 whole entry, looked up): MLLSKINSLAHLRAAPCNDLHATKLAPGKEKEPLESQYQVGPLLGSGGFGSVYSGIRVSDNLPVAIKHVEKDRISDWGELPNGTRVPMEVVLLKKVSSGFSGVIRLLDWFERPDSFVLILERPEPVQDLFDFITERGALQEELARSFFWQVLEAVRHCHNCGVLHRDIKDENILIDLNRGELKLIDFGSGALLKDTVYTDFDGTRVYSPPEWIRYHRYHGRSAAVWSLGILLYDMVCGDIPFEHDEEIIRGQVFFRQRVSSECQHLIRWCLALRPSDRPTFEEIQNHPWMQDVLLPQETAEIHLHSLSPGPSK

`CNC(=O)Nc1ccc(-c2nc(N3CC4CCC(C3)O4)c3cnn(C4CCC5(CC4)OCCO5)c3n2)cc1` showed a % of control in test [1] of 100%.
In [2], `COc1cc(N(C)c2ccnc3ccc(C(F)(F)F)cc23)cc(OC)c1OC` registered a % binding of 87%.
In the case of `Nc1cnc(N2CCc3cc(S(=O)(=O)Nc4c(F)cc(Cl)cc4F)cc(N4CCCC4=O)c32)nc1` [TP-020n], the % of control in test [3] was found to be 100%.
Compound `CCc1cc(Nc2nccc(-c3c(-c4ccc(OC)c(C(=O)Nc5c(F)cccc5F)c4)nc4ccccn34)n2)c(OC)cc1N1CCC(N2CCN(S(C)(=O)=O)CC2)CC1` came in with a % of inhibition in test [4] of 43%.
In turn, `N#Cc1cccc(-c2c[nH]c3ncnc(N4CCOCC4)c23)c1` returned a % of control in test [5] of 100%.
Turning to `CCC(=O)N1CC[C@H](Nc2ncnc3c2CN(c2cnc(OC)c(C(F)(F)F)c2)CC3)C1` [LENIOLISIB], the IC50 in [6] was more than 30 µM.
Consider `CCN(CC)CCCCNc1ncc2cc(-c3cc(OC)cc(OC)c3)c(NC(=O)NC(C)(C)C)nc2n1`, for which the % of control in test [7] was 100%.
`CC(=O)Nc1cccc(-n2c(=O)n(C3CC3)c(=O)c3c(Nc4ccc(I)cc4F)n(C)c(=O)c(C)c32)c1`: in test [8], the % of control stood at 94%.
Consider `COc1cc(Nc2nc(C)cc(-c3cnn4nc(OC)ccc34)n2)cc(C(F)(F)F)c1`, for which the % of control in [9] worked out at 100%.
For `O[C@H]1CC[C@H](Nc2ncc3nc(Nc4c(F)cc(F)cc4F)n([C@H]4CCOC4)c3n2)CC1`, the % of control in test [10] is 90%.
Take `COCC(=O)NC/C=C/c1ccc2ncnc(Nc3ccc(Oc4ccc(C)nc4)c(C)c3)c2c1` [CP-724714]: the % of control in test [11] amounted to 60%; in [12], 92%.

The values above are taken from ChEMBL document CHEMBL5465560, “Selectivity Literature for EUbOPEN Chemogenomic Library” (2024).
